Reference: patent publication US20240075080A1, “USE OF LACTIC ACID BACTERIA TO INHIBIT METHANOGEN GROWTH OR REDUCE METHANE EMISSIONS” (Fonterra Co-Operative Group Limited, priority 2020, published 2024)

Columns and labels:
[1] = test system: Methanobrevibacter boviskoreani JH1; test: Plate-based methanogen bioassay of culture filtrates (Example 1, phosphate buffer); type: cell-based; conditions: filtered supernatant 30% v/v (nisin 4 μM); 5 days at 39° C.; OD600 relative to methanogen without treatment; 16 wells
Experimental: The inoculum of an indicator methanogen strain (Methanobrevibacter boviskoreani JH1) for seeding the plate assay was grown in 9 mL BY medium (Joblin, 2005) supplemented with 0.2 mL of 3 M sodium formate, 0.2 mL of 10 M ethanol, 0.1 mL of Vitamin Solution (Janssen et al., 1997) and 0.1 mL of Coenzyme M Solution (Sigma Aldrich, 0.1 M) by syringe using anaerobic techniques. The head spaces of the tubes were pumped with pressurized O2-free CO2 to 180 kPa and the tubes were incubated at 39° C. without shaking until visible turbidity appeared after 3 to 5 days. Methane produced by the methanogen strain was measured by removing a sample of the headspace gases by syringe and injecting on to a gas chromatograph (GC; Aerograph Corporation, USA) equipped with a Thermal Conductivity Detector (TCD) and using nitrogen as the carrier gas. […] The cultures were routinely observed via wet mounts under fluorescence microscopy, and the methanogen strain appears as short ovoid-shaped rods that fluoresce green under ultraviolet (UV) illumination. […]
Cultures of L. rhamnosus HN001, and control strains (L. plantarum ATCC 8014, L. bulgaricus ATCC 11842) were grown overnight in MRS broth (Sigma-Aldrich) at 39° C. The optical density at 600 nm (OD600) was measured for each culture, and a sample of each was serially diluted through MRS medium and the dilutions plated onto MRS agar plates to determine viable counts. […]

[2] = test system: Methanobrevibacter boviskoreani JH1; test: Plate-based methanogen bioassay of bacteriocin extract and supernatant samples (Example 2, MOPS buffer); type: cell-based; conditions: for Mean % Growth JH1 / Mean % Inhibition: 30% v/v, sample 1 vs 0.9% NaCl, samples 2-7 vs MRS + NH4 lactate
Experimental: Cultures of the indicator methanogen strain were prepared according to item 1.1.1 of Example 1.
Cell and supernatant samples of L. rhamnosus HN001 were derived from a commercial manufacturing run of ˜5,000 L under standard production conditions. Four samples were used, consisting of: • Sample 1. L. rhamnosus HN001 cell sample, unwashed, freeze-dried, low pH extract. • Sample 2. L. rhamnosus HN001 supernatant sample, evaporated @50° C., 35% solids, ˜8× concentrated. • Sample 3. L. rhamnosus HN001 supernatant sample, evaporated @50° C., 45%+solids; ˜11× concentrated. • Sample 4. L. rhamnosus HN001 supernatant sample, freeze-dried.
These samples were kept frozen at −20° C. until needed. Prior to bioassay, the cell sample (Sample 1) was resuspended at 5% (wt/vol) in 0.9% NaCl, pH 6.8, and processed using the bacteriocin extraction method described in 2.1.3 below, resulting in an extract which was stored frozen at −20° C. until use. The evaporated supernatant samples (Samples 2 & 3) and the freeze-dried supernatant sample (Sample 4) were also resuspended at 5% (wt/vol) in 0.9% NaCl, pH 6.8 and filtered through Millex-GP 0.22 μm 25 mm diameter sterile filters (Millipore, Merck, Sigma-Aldrich NZ) into sterile N2-flushed Hungate tubes using 10 mL syringes. The headspace of the Hungate tubes were further flushed for 30 min with a sterile flow of N2 to remove traces of O2 from the samples.
Heat treatments were carried out with the L. rhamnosus HN001 supernatant which generated a further three samples as follows: • Sample 5. L. rhamnosus HN001 supernatant sample, heated at 72° C./15 sec. • Sample 6. L. rhamnosus HN001 supernatant sample, heated at 75° C./4 min. • Sample 7. L. rhamnosus HN001 supernatant sample, heated at 100° C./4 min.
After heat treatment, the samples were filtered through 0.22 μm filters as described above into sterile N2-flushed Hungate tubes and the headspace flushed with a sterile flow of N2. The samples were stored at −20° C. until screening in the indicator methanogen bioassay.
The resuspended culture was transferred into a 15 mL Falcon tube and the pH adjusted to ˜6.8 with 6M NaOH. The pH-adjusted culture sample was incubated at 70° C. for 45 minutes, then centrifuged for 15 min at 2600×g at 4° C. The supernatant was decanted and the cell pellet was resuspended in 8 mL 0.9% NaCl, pH 2. The pH of the resuspended pellet was checked and if necessary, 1M HCl was used to adjust the final pH to 2. The cells were incubated for 2 hours at 4° C. with slow agitation on a shaking platform. The cells were then centrifuged at 2600×g for 15 min at 4° C., and the supernatant collected into a fresh 15 mL Falcon tube. The pH of the supernatant was adjusted 6.8 with 1M NaOH. The pH-adjusted supernatant was filtered through a Millex-GP 0.22 μm 25 mm diameter sterile filter (Millipore, Merck, Sigma-Aldrich NZ) into a sterile N2-flushed Hungate tube using a 10 mL syringe, under sterile conditions. The filtered supernatant was frozen at −20° C. until use.
The bacteriocin extracts contained under anaerobic conditions in Hungate tubes were placed into an anaerobic chamber and allowed to thaw. All of the assay components except the bacteriocin extracts, were added and mixed in a sterile Hungate tube inside the anaerobic chamber in proportion to those indicated in Table 3 and then dispensed into wells of a multiwell 96 well plate containing the bacteriocin extracts. […]

[3] = nisin >1 μM added to alfalfa hay; cited from earlier work
ruminal methanogens = conditions: mixed rumen in vitro assay; cited from earlier work

Row | Substance | % methanogen growth [1] | inhibition of growth of the indicator methanogen strain (in words) [2] | Mean % Growth JH1 ([2]; Assay 1) | Mean % Inhibition ([2]; Assay 1) | Mean % Growth JH1 ([2]; Assay 2) | Mean % Inhibition ([2]; Assay 2) | ratio of acetate to propionate production (in words) [3] | reduction of methane production (ruminal methanogens)
1 | Nisin | 12.2% | strong inhibition | 5.2% | 97.5% | 18.2% | 81.8% | reduced | 
2 | bovicin HC5 |  |  |  |  |  |  |  | 50%
